Measurements published in patent US9409952B2, “Peptide-compound cyclization method” (Chugai Seiyaku Kabushiki Kaisha, priority 2011, dated 2016).
Starred links: 1 amine or outer side, 2 acyl side, 3 side chain; linkers in the order of their positions; H or OH if unused. Positions of bridges follow the written chain, without caps; N, C: chain ends. Non-standard residues stand in square brackets, D forms with d. Residues, ends and D or L forms follow the SMILES beside them. ξ: configuration not given here. *: point of attachment. NMeF = CN[C@@H](Cc1ccccc1)C(=O)O; NMeI = CC[C@H](C)[C@H](NC)C(=O)O; NMeβAla = CN(CCC(=O)[*:2])[*:1]; NMeξIle = CC[C@H](C)C(NC)C(=O)O; NMeL = CN[C@@H](CC(C)C)C(=O)O; NMeV = CN[C@H](C(=O)O)C(C)C; NMeA = CN[C@@H](C)C(=O)O; Piperidide = C1CCN(*)CC1; dNMeA = CN[C@H](C)C(=O)O; ξL = CC(C)CC(N)C(=O)O; Sar = CNCC(=O)O; tBu = CC(C)(C)*

Key:
[1] = PAMPA (parallel artificial membrane permeability assay); format: in vitro ADME; details: PAMPA, pH 6.5
Outline: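 Artificial membrane was 10% (w/v) egg lecithin plus 0.5% (w/v) cholesterol in dodecane on a PVDF filter. A 10 mM DMSO stock was added at 0.5% (v/v) to donor buffer (50 mM MOPSO, pH 6.5, 5.0% glycocholic acid). After 18 h at 37 °C, LC/MS or LC/UV gave donor and acceptor levels for Pe.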

[2] = Metabolic stability in human hepatic microsome; format: in vitro ADME; details: human, microsomes, pH 7.4, CL NADPH(+)

SMILES	Papp at 18 hours, 50 µM [1]	microsomal CLint at 1 uM [2]
CC[C@H](C)C1C(=O)N(C)[C@@H](Cc2ccccc2)C(=O)N[C@H](C(=O)N2CCCCC2)CC(=O)N(C)CC(=O)NC(CC(C)C)C(=O)N(C)[C@@H](Cc2ccccc2)C(=O)N(C)[C@@H](CC(C)C)C(=O)N[C@@H](C)C(=O)N(C)[C@@H](C(C)C)C(=O)N(C)[C@@H](C)C(=O)N[C@@H]([C@@H](C)O)C(=O)N(C)CC(=O)N1C (stereo partly drawn) [DP-64] ([Sar][ξL][NMeF][NMeL]A[NMeV][NMeA]T[Sar][NMeξIle][NMeF]D-Piperidide; lactam N-12)	24 ×10⁻⁶ cm/s	25 µL/min/mg
CC[C@H](C)[C@H]1C(=O)N(C)[C@@H](CC(C)C)C(=O)N[C@H](C(=O)N2CCCCC2)CC(=O)N[C@H](C)C(=O)N[C@@H]([C@@H](C)O)C(=O)N(C)[C@@H](C)C(=O)N(C)[C@@H](Cc2ccccc2)C(=O)N2CCC[C@H]2C(=O)N[C@@H](C)C(=O)N(C)[C@@H](C(C)C)C(=O)N[C@@H](Cc2ccccc2)C(=O)N1C [DP-65] ([dA]T[NMeA][NMeF]PA[NMeV]F[NMeI][NMeL]D-Piperidide; lactam N-11)	14 ×10⁻⁶ cm/s	97 µL/min/mg
CC(C)C[C@H]1C(=O)N(C)[C@@H](Cc2ccccc2)C(=O)N[C@@H](C)C(=O)N2CCC[C@H]2C(=O)N(C)[C@@H](CC(C)C)C(=O)N(C)[C@@H](Cc2ccccc2)C(=O)N(C)[C@@H](C(C)C)C(=O)N[C@H](C(=O)N2CCCCC2)CC(=O)N[C@H](C(C)C)C(=O)N[C@@H]([C@@H](C)O)C(=O)N(C)CC(=O)N1C [DP-66] ([dV]T[Sar][NMeL][NMeF]AP[NMeL][NMeF][NMeV]D-Piperidide; lactam N-11)	19 ×10⁻⁶ cm/s	69 µL/min/mg
CC[C@H](C)[C@H]1C(=O)N(C)CC(=O)N(C)[C@@H](Cc2ccccc2)C(=O)N[C@H](C(=O)N2CCCCC2)CC(=O)N(C)CCC(=O)N(C)[C@@H](C(C)C)C(=O)N(C)[C@@H](CC(C)C)C(=O)N[C@@H](CC(C)C)C(=O)N[C@@H]([C@@H](C)O)C(=O)N(C)[C@@H](C)C(=O)N[C@@H](Cc2ccccc2)C(=O)N1C [DP-68] ([NMeβAla][NMeV][NMeL]LT[NMeA]F[NMeI][Sar][NMeF]D-Piperidide; lactam N-11)	26 ×10⁻⁶ cm/s	35 µL/min/mg
CC[C@H](C)[C@H]1C(=O)N[C@@H]([C@@H](C)O)C(=O)N(C)[C@@H](C)C(=O)N(C)[C@@H](CC(C)C)C(=O)N[C@H](C(=O)N2CCCCC2)CC(=O)N(C)CC(=O)N(C)[C@@H](CC(C)C)C(=O)N[C@@H](CC(C)C)C(=O)N(C)[C@@H](Cc2ccccc2)C(=O)N[C@@H](COC(C)(C)C)C(=O)N(C)[C@@H](Cc2ccccc2)C(=O)N1C [DP-69] ([Sar][NMeL]L[NMeF]S(tBu)[NMeF][NMeI]T[NMeA][NMeL]D-Piperidide; lactam N-11)	21 ×10⁻⁶ cm/s	68 µL/min/mg
CC[C@H](C)[C@H]1C(=O)N(C)[C@@H](Cc2ccccc2)C(=O)NCC(=O)N(C)[C@@H](Cc2ccccc2)C(=O)N(C)[C@@H](CC(C)C)C(=O)N(C)[C@@H](CC(C)C)C(=O)N[C@H](C(=O)N2CCCCC2)CC(=O)N[C@H](C(C)C)C(=O)N[C@@H]([C@@H](C)O)C(=O)N(C)[C@@H](C)C(=O)N1C [DP-72] ([dV]T[NMeA][NMeI][NMeF]G[NMeF][NMeL][NMeL]D-Piperidide; lactam N-10)	27 ×10⁻⁶ cm/s	58 µL/min/mg
CC[C@H](C)[C@H]1C(=O)N[C@@H](C)C(=O)N[C@H](C(=O)N2CCCCC2)CC(=O)N(C)[C@@H](C)C(=O)N[C@@H]([C@@H](C)O)C(=O)N(C)[C@@H](C)C(=O)N(C)[C@@H](C(C)C)C(=O)N[C@@H](Cc2ccccc2)C(=O)N(C)CC(=O)N(C)[C@@H](CC(C)C)C(=O)N1C [DP-73] ([NMeA]T[NMeA][NMeV]F[Sar][NMeL][NMeI]AD-Piperidide; lactam N-10)	5.4 ×10⁻⁶ cm/s	30 µL/min/mg
CC[C@H](C)[C@H]1C(=O)NCC(=O)N(C)[C@@H](Cc2ccccc2)C(=O)N(C)[C@@H](Cc2ccccc2)C(=O)N(C)[C@@H](CC(C)C)C(=O)N(C)[C@@H](CC(C)C)C(=O)N[C@H](C(=O)N2CCCCC2)CC(=O)N(C)[C@H](C)C(=O)N[C@@H]([C@@H](C)O)C(=O)N(C)[C@@H](C)C(=O)N1C [DP-74] ([dNMeA]T[NMeA][NMeI]G[NMeF][NMeF][NMeL][NMeL]D-Piperidide; lactam N-10)	29 ×10⁻⁶ cm/s	118 µL/min/mg
CC[C@H](C)[C@H]1C(=O)N(C)[C@@H](CC(C)C)C(=O)N[C@H](C(=O)N2CCCCC2)CC(=O)N(C)CC(=O)N[C@@H]([C@@H](C)O)C(=O)N(C)[C@@H](C)C(=O)N(C)[C@@H](C(C)C)C(=O)N[C@@H](Cc2ccccc2)C(=O)N(C)CC(=O)N[C@@H](C)C(=O)N1C [DP-75] ([Sar]T[NMeA][NMeV]F[Sar]A[NMeI][NMeL]D-Piperidide; lactam N-10)	3.3 ×10⁻⁶ cm/s	27 µL/min/mg
CC[C@H](C)[C@H]1C(=O)N(C)[C@@H](C)C(=O)N[C@H](C(=O)N2CCCCC2)CC(=O)N(C)CC(=O)N[C@@H](COC(C)(C)C)C(=O)N(C)CC(=O)N(C)[C@@H](CC(C)C)C(=O)N[C@@H]([C@@H](C)O)C(=O)N(C)[C@@H](Cc2ccccc2)C(=O)N(C)[C@@H](CC(C)C)C(=O)N1C [DP-76] ([Sar]S(tBu)[Sar][NMeL]T[NMeF][NMeL][NMeI][NMeA]D-Piperidide; lactam N-10)	16 ×10⁻⁶ cm/s	27 µL/min/mg
CC[C@H](C)[C@H]1C(=O)N[C@H](C(=O)N2CCCCC2)CC(=O)N[C@H](C)C(=O)N(C)[C@@H](Cc2ccccc2)C(=O)N(C)[C@@H](CC(C)C)C(=O)N[C@@H]([C@@H](C)O)C(=O)N(C)CC(=O)N(C)[C@@H](CC(C)C)C(=O)N[C@@H](COC(C)(C)C)C(=O)N1C [DP-77] ([dA][NMeF][NMeL]T[Sar][NMeL]S(tBu)[NMeI]D-Piperidide; lactam N-9)	21 ×10⁻⁶ cm/s	33 µL/min/mg
CC(C)C[C@H]1C(=O)N(C)[C@@H](Cc2ccccc2)C(=O)N(C)[C@@H](CC(C)C)C(=O)N[C@H](C(=O)N2CCCCC2)CC(=O)N[C@H](C(C)C)C(=O)N[C@@H](C)C(=O)N[C@@H]([C@@H](C)O)C(=O)N(C)[C@@H](C)C(=O)N[C@@H](Cc2ccccc2)C(=O)N1C [DP-78] ([dV]AT[NMeA]F[NMeL][NMeF][NMeL]D-Piperidide; lactam N-9)	38 ×10⁻⁶ cm/s	57 µL/min/mg
CC(C)C[C@H]1C(=O)NCC(=O)N[C@H](C(=O)N2CCCCC2)CC(=O)N(C)[C@@H](C)C(=O)N[C@@H]([C@@H](C)O)C(=O)N(C)[C@@H](C)C(=O)N(C)[C@@H](Cc2ccccc2)C(=O)N[C@@H](COC(C)(C)C)C(=O)N(C)[C@@H](Cc2ccccc2)C(=O)N1C [DP-79] ([NMeA]T[NMeA][NMeF]S(tBu)[NMeF][NMeL]GD-Piperidide; lactam N-9)	28 ×10⁻⁶ cm/s	145 µL/min/mg
CC(C)C[C@H]1C(=O)N(C)[C@@H](Cc2ccccc2)C(=O)NCC(=O)N[C@H](C(=O)N2CCCCC2)CC(=O)N(C)CCC(=O)N[C@@H]([C@@H](C)O)C(=O)N(C)[C@@H](C)C(=O)N[C@@H](COC(C)(C)C)C(=O)N(C)[C@@H](Cc2ccccc2)C(=O)N1C [DP-80] ([NMeβAla]T[NMeA]S(tBu)[NMeF][NMeL][NMeF]GD-Piperidide; lactam N-9)	12 ×10⁻⁶ cm/s	43 µL/min/mg
